Article PMC9452538, “The antimicrobial peptide LI14 combats multidrug-resistant bacterial infections” (Communications Biology, 2022)
Converted amounts (≈) assume the structure as drawn. Read-outs that look alike come from different tables or passages of the source.

Experiments:
MRSA 1518 = experiment: microbe, parasite or virus in culture; type: cell-based, Staphylococcus aureus; conditions: Staphylococcus aureus; MRSA 1518; MHB, 16-18 h, 37 °C; read-out: MIC
Method: (§1) An antimicrobial activity study was conducted on all peptides against a panel of laboratory bacteria, including ATCC source and clinical isolates with resistance determinants. According to CLSI2021 guidelines, we tested the minimum inhibitory concentrations (MICs) of peptides using standard broth micro-dilutions. Briefly, bacteria grown to exponential phase were diluted in 1:1000 to MHB, subsequently, equivalent amounts of bacterial suspension (1.5 × 10^6 CFUs/mL) were mixed with different concentrations of peptides in a sterilized 96-well microtiter plate (Corning).

MRSA 1530 = experiment: microbe, parasite or virus in culture; type: cell-based, Staphylococcus aureus; conditions: Staphylococcus aureus; MRSA 1530; MHB, 16-18 h, 37 °C; read-out: MIC
Method: as §1

E. faecium 5F-10 = experiment: microbe, parasite or virus in culture; type: cell-based, Enterococcus faecium; conditions: Enterococcus faecium, 5F10
Method: as §1

P. aeruginosa PA14 = experiment: microbe, parasite or virus in culture; type: cell-based, Pseudomonas aeruginosa; conditions: Pseudomonas aeruginosa
Method: as §1

E. coli DH5α (PUC19) = experiment: MIC broth microdilution; type: cell-based, Escherichia coli; conditions: Escherichia coli; engineered E. coli DH5α (PUC19); MHB, 16-18 h, 37 °C; read-out: MIC
Method: as §1

[1] = system: E. coli DH5α (PUC19-mcr-1); experiment: MIC broth microdilution; type: cell-based, Escherichia coli; conditions: Escherichia coli
Method: as §1

S. aureus G16 (RIF^R) = experiment: MIC broth microdilution; type: cell-based, Staphylococcus aureus; conditions: Staphylococcus aureus
Method: as §1

[2] = system: S. aureus 215 (cfr + LZD^R); experiment: MIC broth microdilution; type: cell-based, Staphylococcus aureus; conditions: Staphylococcus aureus
Method: as §1

[3] = system: P. cibarius HNCF44W (blaNDM-1 + tet(X6)); experiment: organism not typed; type: cell-based; conditions: P. cibarius HNCF44W (blaNDM-1 + tet(X6)); MHB, 16-18 h, 37 °C; read-out: MIC
Method: as §1

[4] = system: K. pneumoniae D120 (mcr-8); experiment: microbe, parasite or virus in culture; type: cell-based, Klebsiella pneumoniae; conditions: Klebsiella pneumoniae; K. pneumoniae D120 (mcr-8); MHB, 16-18 h, 37 °C; read-out: MIC
Method: as §1

[5] = system: K. pneumoniae ATCC 700603; experiment: microbe, parasite or virus in culture; type: cell-based, Klebsiella pneumoniae; conditions: Klebsiella pneumoniae, ATCC700603; K. pneumoniae ATCC 700603; MHB, 16-18 h, 37 °C; read-out: MIC
Method: as §1

E. coli CP131 (mcr-3) = experiment: microbe, parasite or virus in culture; type: cell-based, Escherichia coli; conditions: Escherichia coli
Method: as §1

E. coli C3 (blaNDM-1) = experiment: microbe, parasite or virus in culture; type: cell-based, Escherichia coli; conditions: Escherichia coli; E. coli C3 (blaNDM-1); MHB, 16-18 h, 37 °C; read-out: MIC
Method: as §1

E. coli G6 (blaNDM-5) = experiment: microbe, parasite or virus in culture; type: cell-based, Escherichia coli; conditions: Escherichia coli; E. coli G6 (blaNDM-5); MHB, 16-18 h, 37 °C; read-out: MIC
Method: as §1

E. coli 1F28 (tet(X4)) = experiment: microbe, parasite or virus in culture; type: cell-based, Escherichia coli; conditions: Escherichia coli; E. coli 1F28 (tet(X4)); MHB, 16-18 h, 37 °C; read-out: MIC
Method: as §1

E. coli B3-1 (tet(X4)) = experiment: microbe, parasite or virus in culture; type: cell-based, Escherichia coli; conditions: Escherichia coli; E. coli B3-1 (tet(X4)); MHB, 16-18 h, 37 °C; read-out: MIC
Method: as §1

E. coli G92 (mcr-1) = experiment: microbe, parasite or virus in culture; type: cell-based, Escherichia coli; conditions: Escherichia coli
Method: as §1

[6] = system: A. baumannii C222 (tet(X6)); experiment: microbe, parasite or virus in culture; type: cell-based, Acinetobacter baumannii; conditions: Acinetobacter baumannii
Method: as §1

A. baumannii ATCC 19609 = experiment: microbe, parasite or virus in culture; type: cell-based, Acinetobacter baumannii; conditions: Acinetobacter baumannii, ATCC19609; A. baumannii ATCC 19609; MHB, 16-18 h, 37 °C; read-out: MIC
Method: as §1

E. faecalis 1F-1 = experiment: microbe, parasite or virus in culture; type: cell-based; conditions: Enterococcus faecalis, 1F1; E. faecalis 1F-1; MHB, 16-18 h, 37 °C; read-out: MIC
Method: as §1

[7] = system: E. faecalis A4 (VRE, VanA); experiment: microbe, parasite or virus in culture; type: cell-based; conditions: Enterococcus faecalis
Method: as §1

[8] = system: S. enteritidis ATCC 13076; experiment: microbe, parasite or virus in culture; type: cell-based; conditions: Salmonella enterica
Method: as §1

[9] = system: sensitive E. coli ATCC 25922; experiment: Checkerboard assay with LI14; type: cell-based, Escherichia coli
[10] = system: tigecycline-resistant E. coli B3-1; experiment: Checkerboard assay with LI14; type: cell-based, Escherichia coli
[11] = system: E. coli DH5α (PUC19-blaNDM-9); experiment: MIC broth microdilution; type: cell-based; conditions: Escherichia coli
Method: as §1

[12] = system: E. coli DH5α (PUC19-blaNDM-5); experiment: MIC broth microdilution; type: cell-based; conditions: Escherichia coli
Method: as §1

[13] = system: E. coli DH5α (PUC19-tet(X4)); experiment: MIC broth microdilution; type: cell-based; conditions: Escherichia coli
Method: as §1

[14] = system: E. coli DH5α (PUC19-blaNDM-1); experiment: MIC broth microdilution; type: cell-based; conditions: Escherichia coli
Method: as §1

S. aureus ATCC 29213 = experiment: microbe, parasite or virus in culture; type: cell-based, Staphylococcus aureus; conditions: Staphylococcus aureus, ATCC29213
How it was run: (§2)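 Broth microdilution MIC per CLSI 2021 in MHB. Exponential-phase bacteria diluted 1:1000 to 1.5 × 10^6 CFUs/mL and mixed with serial peptide concentrations.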

MRSA T144 = experiment: microbe, parasite or virus in culture; type: cell-based, Staphylococcus aureus; conditions: Staphylococcus aureus; MRSA T144; MHB, 16-18 h, 37 °C; read-out: MIC
How it was run: as §2

E. coli ATCC 25922 = experiment: microbe, parasite or virus in culture; type: cell-based, Escherichia coli; conditions: Escherichia coli, ATCC25922
How it was run: as §2

[15] = system: E. coli B2 (blaNDM-5 + mcr-1); experiment: microbe, parasite or virus in culture; type: cell-based, Escherichia coli; conditions: Escherichia coli; E. coli B2 (blaNDM-5 + mcr-1); MHB, 16-18 h, 37 °C; read-out: MIC
How it was run: as §2

MDR E. coli B2 = experiment: Checkerboard assay with LI14; type: cell-based, Escherichia coli
[16] = serum versus MHB broth medium; cited from earlier work
From the text: Amphiphilicity, ɑ-helicity and appropriate peptide chain length are key factors for AMP activity.

[17] = antibiotic in combination with LI14, checkerboard
[18] = in the presence of ¼ MIC of LI14

Row | Compound | MIC (MRSA 1518) [µg/mL] | MIC (MRSA 1530) [µg/mL] | MIC (E. coli DH5α (PUC19)) [µg/mL] | MIC [1] [µg/mL] | MIC (S. aureus G16 (RIF^R)) [µg/mL] | MIC [2] [µg/mL] | MIC [3] [µg/mL] | MIC [4] [µg/mL] | MIC [5] [µg/mL] | MIC (E. coli C3 (blaNDM-1)) [µg/mL] | MIC (E. coli G6 (blaNDM-5)) [µg/mL] | MIC (E. coli 1F28 (tet(X4))) [µg/mL] | MIC (E. coli B3-1 (tet(X4))) [µg/mL] | MIC (A. baumannii ATCC 19609) [µg/mL] | MIC (E. faecalis 1F-1) [µg/mL] | MIC [13] [µg/mL] | MIC (MRSA T144) [µg/mL] | MIC [15] [µg/mL] | also measured
1 | CN(C)c1cc(NC(=O)CNC(C)(C)C)c(O)c2c1C[C@H]1C[C@H]3[C@H](N(C)C)C(O)=C(C(N)=O)C(=O)[C@@]3(O)C(O)=C1C2=O [Tigecycline] | 0.25 (≈ 0.427 µM) | 1 (≈ 1.71 µM) | 1 (≈ 1.71 µM) | 1 (≈ 1.71 µM) | < 0.0625 | 0.25 (≈ 0.427 µM) | 64 | 0.25 (≈ 0.427 µM) | 0.5 (≈ 0.854 µM) | 2 (≈ 3.41 µM) | 2 (≈ 3.41 µM) | 16 (≈ 27.3 µM) | 32 (≈ 54.6 µM) | 0.25 (≈ 0.427 µM) | 16 (≈ 27.3 µM) | 64 (≈ 109 µM) | 0.25 (≈ 0.427 µM) | 2 | MIC (E. faecium 5F-10): < 0.0625 µg/mL; MIC (P. aeruginosa PA14; PA14): < 0.0625 µg/mL; MIC (E. coli CP131 (mcr-3); E. coli CP131 (mcr-3), MHB, 16-18 h, 37 °C, read-out: MIC): 2 µg/mL (≈ 3.41 µM); MIC (E. coli G92 (mcr-1); E. coli G92 (mcr-1), MHB, 16-18 h, 37 °C, read-out: MIC): 4 µg/mL (≈ 6.83 µM); MIC ([6]; A. baumannii C222 (tet(X6)), MHB, 16-18 h, 37 °C, read-out: MIC): 64 µg/mL (≈ 109 µM); MIC ([7]; VRE): < 0.0625 µg/mL; MIC [8]: 0.125 µg/mL (≈ 0.213 µM); FIC index [9, 17]: 0.5; MICa of antibiotic ([9]; in the absence of LI14): 0.063 µg/mL; MICb of antibiotic [9, 18]: 0.016 µg/mL; Potentiation [9, 18]: 4 fold; FIC index [10, 17]: 0.125; MICa of antibiotic ([10]; in the absence of LI14): 32 µg/mL; MICb of antibiotic [10, 18]: 2 µg/mL; Potentiation [10, 18]: 16 fold; MIC [11]: 1 µg/mL (≈ 1.71 µM); MIC [12]: 1 µg/mL (≈ 1.71 µM); MIC [14]: 1 µg/mL (≈ 1.71 µM); MIC (S. aureus ATCC 29213): 0.125 µg/mL (≈ 0.213 µM); MIC (E. coli ATCC 25922): 0.125 µg/mL (≈ 0.213 µM)
2 | C[C@@H](O)[C@H]1C(=O)N2C(C(=O)O)=C(S[C@@H]3CN[C@H](C(=O)N(C)C)C3)[C@H](C)[C@H]12 [Meropenem] | 0.25 (≈ 0.652 µM) | 0.25 (≈ 0.652 µM) | < 0.125 | < 0.125 | 2 (≈ 5.22 µM) | 1 (≈ 2.61 µM) | > 16 | < 0.0625 | < 0.0625 | 8 (≈ 20.9 µM) | 64 (≈ 167 µM) | 0.25 (≈ 0.652 µM) | < 0.0625 | < 0.0625 | 8 (≈ 20.9 µM) | < 0.125 | 1 (≈ 2.61 µM) | 32 | MIC (E. faecium 5F-10; E. faecium 5F-10, MHB, 16-18 h, 37 °C, read-out: MIC): 8 µg/mL (≈ 20.9 µM); MIC (P. aeruginosa PA14; P. aeruginosa PA14, MHB, 16-18 h, 37 °C, read-out: MIC): 32 µg/mL (≈ 83.4 µM); MIC (E. coli CP131 (mcr-3)): < 0.125 µg/mL; MIC (E. coli G92 (mcr-1)): < 0.125 µg/mL; MIC [6]: < 0.125 µg/mL; MIC ([7]; E. faecalis A4 (VRE, VanA), MHB, 16-18 h, 37 °C, read-out: MIC): > 64 µg/mL; MIC ([8]; S. enteritidis ATCC 13076, MHB, 16-18 h, 37 °C, read-out: MIC): < 0.0625 µg/mL; FIC index (MDR E. coli B2; antibiotic in combination with LI14, checkerboard 8 × 8, 18 h, ≤0.5 = synergy): 2; MICa of antibiotic (MDR E. coli B2; in the absence of LI14): 32 µg/mL; MICb of antibiotic (MDR E. coli B2; [18]): 32 µg/mL; MIC (S. aureus ATCC 29213; S. aureus ATCC 29213, MHB, 16-18 h, 37 °C, read-out: MIC): < 0.0625 µg/mL; MIC (E. coli ATCC 25922; E. coli ATCC 25922, MHB, 16-18 h, 37 °C, read-out: MIC): 0.03 µg/mL (≈ 0.0782 µM)
3 | LL-37: human AMP LL-37, previously reported peptide antibiotic | – | – | – | – | – | – | – | – | – | – | – | – | – | – | – | – | – | – | Change of MIC value in serum [16]: greater than 128 fold
